Measured values as given in ChEMBL document CHEMBL1131296 (J Med Chem, 1998).

Columns and labels:
[1] = molecular target: T1, Alpha-1A adrenergic receptor (Rattus norvegicus, UniProt P43140); assay: Antagonism of the norepinephrine induced contraction of rat isolated prostatic vas deferens.; format: functional; conditions: read-out: pA2 (converted)
T1 sequence (P43140 whole entry): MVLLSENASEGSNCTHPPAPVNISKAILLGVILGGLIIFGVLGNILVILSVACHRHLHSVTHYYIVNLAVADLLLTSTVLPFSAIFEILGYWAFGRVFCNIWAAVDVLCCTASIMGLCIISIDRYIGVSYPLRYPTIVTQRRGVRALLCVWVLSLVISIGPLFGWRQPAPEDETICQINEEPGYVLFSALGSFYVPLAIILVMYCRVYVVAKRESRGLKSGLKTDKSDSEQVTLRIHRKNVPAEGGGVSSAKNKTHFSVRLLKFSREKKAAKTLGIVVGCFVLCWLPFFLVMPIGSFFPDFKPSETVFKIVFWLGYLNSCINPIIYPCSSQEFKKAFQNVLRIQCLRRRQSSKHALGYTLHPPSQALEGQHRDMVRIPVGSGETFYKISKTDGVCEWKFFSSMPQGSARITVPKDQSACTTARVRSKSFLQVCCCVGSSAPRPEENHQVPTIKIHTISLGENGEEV

[2] = molecular target: T2, Alpha-1D adrenergic receptor (Rattus norvegicus, UniProt P23944); assay: Antagonism of norepinephrine induced contraction of rat isolated thoracic aorta.; format: functional, tissue-based; conditions: read-out: pA2 (converted)
T2 sequence (P23944 whole entry): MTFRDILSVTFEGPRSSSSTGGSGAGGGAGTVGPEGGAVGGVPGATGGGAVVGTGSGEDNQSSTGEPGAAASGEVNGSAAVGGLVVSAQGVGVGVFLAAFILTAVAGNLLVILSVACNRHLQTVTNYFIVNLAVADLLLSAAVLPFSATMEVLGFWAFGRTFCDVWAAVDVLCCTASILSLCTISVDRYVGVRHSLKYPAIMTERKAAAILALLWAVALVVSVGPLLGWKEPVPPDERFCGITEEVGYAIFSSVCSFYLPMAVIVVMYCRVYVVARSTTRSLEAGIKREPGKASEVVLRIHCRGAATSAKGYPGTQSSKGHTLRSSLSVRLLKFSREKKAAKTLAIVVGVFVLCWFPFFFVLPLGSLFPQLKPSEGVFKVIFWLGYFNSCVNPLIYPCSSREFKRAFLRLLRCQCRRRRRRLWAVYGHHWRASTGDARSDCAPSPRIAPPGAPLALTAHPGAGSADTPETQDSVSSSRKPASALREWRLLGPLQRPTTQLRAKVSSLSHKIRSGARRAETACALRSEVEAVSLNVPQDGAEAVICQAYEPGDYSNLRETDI

[3] = molecular target: T3, Alpha-1B adrenergic receptor (Rattus norvegicus, UniProt P15823); assay: Antagonism of phenylephrine stimulated contraction of the rat isolated spleen.; format: functional, tissue-based; conditions: read-out: pA2 (converted)
T3 sequence (P15823 whole entry): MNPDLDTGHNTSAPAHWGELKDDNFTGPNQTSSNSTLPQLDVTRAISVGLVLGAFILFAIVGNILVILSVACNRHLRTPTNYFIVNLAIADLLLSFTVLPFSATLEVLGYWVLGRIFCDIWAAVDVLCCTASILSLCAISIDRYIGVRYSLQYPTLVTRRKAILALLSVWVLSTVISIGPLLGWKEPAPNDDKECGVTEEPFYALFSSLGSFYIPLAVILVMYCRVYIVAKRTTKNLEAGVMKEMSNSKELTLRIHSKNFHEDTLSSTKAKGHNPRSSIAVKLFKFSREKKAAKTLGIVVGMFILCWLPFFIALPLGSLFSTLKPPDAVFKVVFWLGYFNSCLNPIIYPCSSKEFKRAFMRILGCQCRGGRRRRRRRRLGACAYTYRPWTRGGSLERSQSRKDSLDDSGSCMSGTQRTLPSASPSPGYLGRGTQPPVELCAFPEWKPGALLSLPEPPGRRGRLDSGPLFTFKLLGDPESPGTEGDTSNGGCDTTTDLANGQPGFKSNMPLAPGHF

[4] = molecular target: T4, Adrenergic receptor alpha-2 (Rattus norvegicus, UniProt P22086+P19328+P22909); assay: Antagonism of the clonidine-induced depression of twitch responses of rat isolated prostatic vas deferens.
T4 sequence (P22086 whole entry): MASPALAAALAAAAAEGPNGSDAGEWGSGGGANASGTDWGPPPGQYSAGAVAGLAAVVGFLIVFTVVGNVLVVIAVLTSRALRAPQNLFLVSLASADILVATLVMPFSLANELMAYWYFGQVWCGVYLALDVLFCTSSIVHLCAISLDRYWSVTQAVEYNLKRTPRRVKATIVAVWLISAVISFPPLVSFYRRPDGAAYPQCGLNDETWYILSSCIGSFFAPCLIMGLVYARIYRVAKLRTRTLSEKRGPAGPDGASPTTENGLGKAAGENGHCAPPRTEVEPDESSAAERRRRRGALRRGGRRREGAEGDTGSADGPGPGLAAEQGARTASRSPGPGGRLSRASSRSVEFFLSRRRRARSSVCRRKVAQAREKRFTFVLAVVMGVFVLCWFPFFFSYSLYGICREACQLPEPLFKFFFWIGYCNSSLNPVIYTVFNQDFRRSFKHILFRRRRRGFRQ
T4 sequence (P19328 whole entry): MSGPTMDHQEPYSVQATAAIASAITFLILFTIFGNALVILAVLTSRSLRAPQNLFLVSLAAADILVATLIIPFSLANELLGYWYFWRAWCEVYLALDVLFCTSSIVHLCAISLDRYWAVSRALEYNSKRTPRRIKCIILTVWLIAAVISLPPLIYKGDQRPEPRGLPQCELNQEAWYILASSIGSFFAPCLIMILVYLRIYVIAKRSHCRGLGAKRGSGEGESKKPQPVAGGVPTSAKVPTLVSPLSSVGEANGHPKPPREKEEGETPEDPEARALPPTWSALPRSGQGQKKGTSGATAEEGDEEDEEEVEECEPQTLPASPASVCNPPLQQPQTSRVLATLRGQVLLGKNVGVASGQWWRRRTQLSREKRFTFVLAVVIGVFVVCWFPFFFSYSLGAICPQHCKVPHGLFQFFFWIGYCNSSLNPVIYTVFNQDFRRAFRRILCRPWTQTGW
T4 sequence (P22909 whole entry): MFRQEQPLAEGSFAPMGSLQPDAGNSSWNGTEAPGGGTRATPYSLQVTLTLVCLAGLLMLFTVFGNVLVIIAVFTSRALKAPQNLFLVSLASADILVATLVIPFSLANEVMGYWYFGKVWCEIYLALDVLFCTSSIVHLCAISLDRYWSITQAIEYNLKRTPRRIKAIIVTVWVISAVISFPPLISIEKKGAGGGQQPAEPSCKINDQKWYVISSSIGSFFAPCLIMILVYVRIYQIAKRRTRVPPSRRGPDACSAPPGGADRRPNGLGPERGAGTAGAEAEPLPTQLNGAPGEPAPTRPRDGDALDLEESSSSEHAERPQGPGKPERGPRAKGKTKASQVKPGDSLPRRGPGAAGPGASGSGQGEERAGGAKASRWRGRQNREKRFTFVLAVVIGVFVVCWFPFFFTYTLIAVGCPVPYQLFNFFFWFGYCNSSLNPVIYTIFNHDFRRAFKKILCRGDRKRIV

[5] = molecular target: T5, Alpha-1B adrenergic receptor (Homo sapiens, UniProt P35368); assay: Binding affinity at human cloned Alpha-1B adrenergic receptor in chinese hamster ovary cells by [3H]prazosin displacement.; format: cell-based, CHO
T5 sequence (P35368 whole entry): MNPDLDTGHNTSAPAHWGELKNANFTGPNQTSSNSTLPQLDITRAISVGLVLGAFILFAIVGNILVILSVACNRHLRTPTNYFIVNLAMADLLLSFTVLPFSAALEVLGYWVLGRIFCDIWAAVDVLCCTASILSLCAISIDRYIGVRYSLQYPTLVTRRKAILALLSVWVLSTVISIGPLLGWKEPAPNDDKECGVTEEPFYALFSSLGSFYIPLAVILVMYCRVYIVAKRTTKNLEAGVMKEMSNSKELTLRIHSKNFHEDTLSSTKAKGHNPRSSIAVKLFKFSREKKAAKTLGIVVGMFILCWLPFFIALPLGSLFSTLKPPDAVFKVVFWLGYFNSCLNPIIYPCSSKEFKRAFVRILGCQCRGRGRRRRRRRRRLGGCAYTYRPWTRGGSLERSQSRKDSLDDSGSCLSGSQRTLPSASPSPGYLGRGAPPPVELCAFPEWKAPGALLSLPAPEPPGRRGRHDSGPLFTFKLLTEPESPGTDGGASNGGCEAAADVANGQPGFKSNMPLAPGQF

CNCCCCCCN(C)Cc1ccc(C(=O)N(C)CCCCCCN(C)c2nc(N)c3cc(OC)c(OC)cc3n2)cc1
Kb [1]: 191 nM | Kb [2]: 3.47 nM | Kb [3]: 0.617 nM | pA2 [4]: 5.6

CNCCCCCCN(C)Cc1cccc(C(=O)N(C)CCCCCCN(C)c2nc(N)c3cc(OC)c(OC)cc3n2)c1
Kb [1]: 8.91 nM | Kb [2]: 14.5 nM | Kb [3]: 19.5 nM | pA2 [4]: < 5

COc1cc2nc(N(C)CCCCCCN(C)C(=O)c3ccccc3)nc(N)c2cc1OC
Kb [1]: 38 nM | Kb [2]: 6.92 nM | Kb [3]: 0.447 nM | pA2 [4]: 6.52

COc1cc2nc(N(C)CCCCCCN(C)C(=O)c3ccc(CCl)o3)nc(N)c2cc1OC
Kb [1]: 6.76 nM | Kb [2]: 0.407 nM | Kb [3]: 1.07 nM | pA2 [4]: < 5

COc1cc2nc(N(C)CCCCCCN(C)C(=O)c3ccc(CN(C)C)cc3)nc(N)c2cc1OC
Kb [1]: 72.4 nM | Kb [2]: 13.8 nM | Kb [3]: 2.95 nM | pA2 [4]: 5.12

COc1cc2nc(N(C)CCCCCCN(C)C(=O)c3ccccc3CCl)nc(N)c2cc1OC
Kb [1]: 417 nM | Kb [2]: 2.82 nM | Kb [3]: 1.86 nM | pA2 [4]: 5.31

COc1cc2nc(N(C)CCCCCCN(C)C(=O)c3ccc(CN4CCSC4)cc3)nc(N)c2cc1OC
Kb [1]: 58.9 nM | Kb [2]: 6.76 nM | Kb [3]: 9.77 nM | pA2 [4]: < 5

COc1cc2nc(N(C)CCCCCCN(C)C(=O)c3ccccc3CNCCCCCCN)nc(N)c2cc1OC
Kb [1]: 10.7 nM | Kb [2]: 3.16 nM | Kb [3]: 0.676 nM | pA2 [4]: 5.47

COc1cc2nc(N(C)CCSSCCN(C)C(=O)c3ccc(CCl)o3)nc(N)c2cc1OC
Kb [1]: 16.6 nM | Kb [2]: 9.33 nM | Kb [3]: 42.7 nM | pA2 [4]: < 5

COc1cc2nc(N(C)CCCCCCN(C)C(=O)c3cccc(CCl)c3)nc(N)c2cc1OC
Kb [1]: 79.4 nM | Kb [2]: 51.3 nM | Kb [3]: 66.1 nM | pA2 [4]: < 5

COc1cc2nc(N(C)CCSSCCN(C)C(=O)c3ccc(CN(C)C)o3)nc(N)c2cc1OC
Kb [1]: 200 nM | Kb [2]: 6.03 nM | Kb [3]: 53.7 nM | pA2 [4]: < 5

COc1cc2nc(N(C)CCCCCCN(C)C(=O)c3ccccc3CN(C)C)nc(N)c2cc1OC
Kb [1]: 91.2 nM | Kb [2]: 5.5 nM | Kb [3]: 13.2 nM | pA2 [4]: < 5

COc1cc2nc(N(C)CCCCCCN(C)C(=O)c3cccc(CN4CCSC4)c3)nc(N)c2cc1OC
Kb [1]: 15.1 nM | Kb [2]: 3.09 nM | Kb [3]: 9.33 nM | pA2 [4]: 5.94

COc1cc2nc(N(C)CCCCCCN(C)C(=O)c3ccc(CN(C)C)o3)nc(N)c2cc1OC
Kb [1]: 38.9 nM | Kb [2]: 5.89 nM | Kb [3]: 2.4 nM | pA2 [4]: < 5

COc1cc2nc(N(C)CCCCCCN(C)C(=O)c3cccc(CN)c3)nc(N)c2cc1OC
Kb [1]: 47.9 nM | Kb [2]: 2.04 nM | Kb [3]: 2.45 nM | pA2 [4]: 5.44

COc1cc2nc(N(C)CCCCCCN(C)C(=O)c3ccc(CCl)cc3)nc(N)c2cc1OC
Kb [1]: 77.6 nM | Kb [2]: 19.5 nM | Kb [3]: 0.708 nM | pA2 [4]: 5.54

COc1ccccc1N1CCN(CCN2C(=O)CC3(CCCC3)CC2=O)CC1 [BMY-7378]
Ki [5]: 64.6 nM | pA2 [4]: < 5
